Measured values published in patent publication US11077120B2, “Prostaglandin receptor EP2 antagonists, derivatives, compositions, and uses related thereto” (Emory University, priority 2014, dated 2021).
≈ marks a conversion by molar mass, not a printed value. Read-outs that look alike come from different tables or passages of the source.

How the values were obtained:
C6-glioma cells = conditions: read-out: Cytotoxicity (CC50); Table 4
Procedure: CC50 are average one measurement run in triplicate.
Several of compounds were examined against EP4 and IP receptors at single concentration of 10 μM.

[1] = liver microsomal stability, human
[2] = liver microsomal stability, mouse
[3] = aqueous solubility by nephelometry; conditions: for Solubility: Table 3, PBS buffer (pH 7.4) with 1% DMSO by nephelometry
human EP2 receptors = molecular target: T1, human EP2 receptors (Homo sapiens, UniProt P43116); assay: cell-based cAMP TR-FRET assay, rightward shift of PGE2 concentration response curve (Schild KB), EP2; conditions: Schild regression analysis
T1 construct: expressed in transfected cells
T1 sequence (P43116 whole entry): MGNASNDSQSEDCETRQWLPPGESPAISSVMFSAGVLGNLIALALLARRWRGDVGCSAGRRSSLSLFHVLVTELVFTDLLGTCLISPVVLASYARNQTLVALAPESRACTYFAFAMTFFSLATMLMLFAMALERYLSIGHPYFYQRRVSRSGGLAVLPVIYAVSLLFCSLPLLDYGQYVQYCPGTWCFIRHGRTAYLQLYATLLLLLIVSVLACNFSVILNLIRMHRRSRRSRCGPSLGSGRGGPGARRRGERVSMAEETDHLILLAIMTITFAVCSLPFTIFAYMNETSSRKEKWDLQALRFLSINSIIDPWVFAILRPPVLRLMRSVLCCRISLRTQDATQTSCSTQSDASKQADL
Summary of the method: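 C6G cells overexpressing human EP2 were pre-incubated 0.5–1 h at RT in HBSS with 20 μM rolipram, then exposed to 1 μM compound for 10 min before increasing PGE2 for 40 min at RT. cAMP was read by TR-FRET (cAMP-d2/anti-cAMP cryptate, F665/F590). KB is the antagonist concentration giving a twofold rightward shift of the PGE2 curve.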

[4] = pH 7.4
[5] = mouse, in vivo
physchem = conditions: pH 7.4, aqueous buffer, kinetic from dmso stock

SMILES	CC50 (C6-glioma cells)	% of Parent Compound Remaining at 60 min vs. T = 0 min, Human Liver Microsomes ([1]; 1 μM)	% of Parent Compound Remaining at 60 min vs. T = 0 min, Human Liver Microsomes ([1]; 10 μM)	% of Parent Compound Remaining at 60 min vs. T = 0 min, Mouse Liver Microsomes ([2]; 1 μM)	% of Parent Compound Remaining at 60 min vs. T = 0 min, Mouse Liver Microsomes ([2]; 10 μM)	% remaining at 60 minutes in mouse liver microsomes ([2]; at 1 μM concentration)	Solubility [3]	mechanism of antagonism of EP2 (human EP2 receptors)	Solubility [4]	C-max ([5]; ip, 5 mg/kg)	T1/2 (plasma) ([5]; ip, 5 mg/kg)	C-max ([5]; po, 10 mg/kg)	T1/2 (plasma) ([5]; po, 10 mg/kg)	Solubility (physchem)	aqueous solubility (in words) ([3]; PBS buffer (pH 7.4) with 1% DMSO, nephelometry)
COc1cc(/C=C/C(=O)NCCn2c(C)cc3ccccc32)cc(OC)c1OC [Compound 15a]	172 µM	0.1%	10.6%	0.2%	4.8%	0.2%	45 µM (≈ 17.8 µg/mL)								
Cc1cc2ccccc2n1CCNC(=O)/C=C/c1ccc(OCCO)c(OCCO)c1 [Compound 16a, (E)-3-(3,4-bis(2-hydroxyethoxy)phenyl)-N-(2-(2-methyl-1H-indol-1-yl)ethyl)acrylamide]								competitive	153 µM (≈ 64.9 µg/mL)	1510 ± 142 ng/mL	1.49 h	128 ± 23 ng/mL	1.44 h		
O=C(/C=C/c1ccc(OCCO)c(OCCO)c1)NCCn1c(C(F)(F)F)cc2ccccc21 [Compound 16b]									67 µM (≈ 32.1 µg/mL)					67 µM (≈ 32.1 µg/mL)	
Cc1[nH]c2ccccc2c1CCNC(=O)/C=C/c1ccc(OCCO)c(OCCO)c1 [Compound 16c, (E)-3-(3,4-bis(2-hydroxyethoxy)phenyl)-N-(2-(2-methyl-1H-indol-3-yl)ethyl)acrylamide]		58.5%	70.4%	7.1%	19.3%		235 µM (≈ 99.8 µg/mL)								very soluble
